Laboratory results: patent US10285989B2, “Pyrimidinone amide compounds as PDE2 inhibitors” (Merck Sharp & Dohme Corp., priority 2015, dated 2019)
Like-named read-outs stand apart in the source and are kept apart here.

What was measured:
[1] = target: Rhesus PDE2A3 (Macaca mulatta, UniProt B3VTJ2); experiment: PDE2 fluorescence polarization (IMAP FP) inhibition assay, rhesus PDE2A3; assay type: biochemical, rhesus macaque
Experimental: A Labcyte Echo 555 (Labcyte, Sunnyvale, Calif.) is used to dispense 200 nL from each well of the titration plate to the 384 well assay plate. Ten microliters of a solution of enzyme (1/2000 final dilution from aliquots; sufficient to produce 20% substrate conversion) was added to the assay plate. Next 10 uL of a separate solution of the substrate FAM-labeled cAMP (50 nM final concentration product # R^7506 from Molecular Devices) and the activator cGMP (1 uM final concentration), prepared in the assay buffer (10 mM Tris HCl, pH 7.2, 10 mM MgCl2, 0.05% NaN3 0.01% Tween-20, and 1 mM DTT) was added to the assay plate and shaken to mix. The reaction is allowed to proceed at room temperature for 60 minutes. A binding solution is then made from the kit components, comprised of 80% Solution A, 20% Solution B and binding reagent at a volume of 1/600 the total binding solution. The enzymatic reaction is stopped by addition of 60 μL of the binding solution to each well of the assay plates and the plates are sealed and shaken for 30 seconds. The plate was incubated at room temperature for at least one hour prior to determining the fluorescence polarization (FP). The parallel and perpendicular fluorescence of each well of the plate was measured using a Tecan Genios Pro plate reader (Tecan, Switzerland) or Perkin Elmer EnVision™ plate reader (Waltham, Mass.). Fluorescence polarization (mP) was calculated from the parallel (S) and perpendicular (P) fluorescence of each sample well and the analogous values for the median control well, containing only substrate (So and Po), using the following equation: Polarization (mP)=1000*(S/So−P/Po)/(S/So+P/Po).
Dose-inhibition profiles for each compound were characterized by fitting the mP data to a four-parameter equation given below.
An apparent (KM) for FAM-labeled cAMP of ˜10 uM was used.

[2] = target: human PDE2A1 (Homo sapiens (Human), UniProt O00408); experiment: PDE2 IMAP FP inhibition assay, human PDE2A1 (selectivity panel format); assay type: biochemical
Chain of human PDE2A1 (O00408 other isoform, or with tags, fused parts or gaps): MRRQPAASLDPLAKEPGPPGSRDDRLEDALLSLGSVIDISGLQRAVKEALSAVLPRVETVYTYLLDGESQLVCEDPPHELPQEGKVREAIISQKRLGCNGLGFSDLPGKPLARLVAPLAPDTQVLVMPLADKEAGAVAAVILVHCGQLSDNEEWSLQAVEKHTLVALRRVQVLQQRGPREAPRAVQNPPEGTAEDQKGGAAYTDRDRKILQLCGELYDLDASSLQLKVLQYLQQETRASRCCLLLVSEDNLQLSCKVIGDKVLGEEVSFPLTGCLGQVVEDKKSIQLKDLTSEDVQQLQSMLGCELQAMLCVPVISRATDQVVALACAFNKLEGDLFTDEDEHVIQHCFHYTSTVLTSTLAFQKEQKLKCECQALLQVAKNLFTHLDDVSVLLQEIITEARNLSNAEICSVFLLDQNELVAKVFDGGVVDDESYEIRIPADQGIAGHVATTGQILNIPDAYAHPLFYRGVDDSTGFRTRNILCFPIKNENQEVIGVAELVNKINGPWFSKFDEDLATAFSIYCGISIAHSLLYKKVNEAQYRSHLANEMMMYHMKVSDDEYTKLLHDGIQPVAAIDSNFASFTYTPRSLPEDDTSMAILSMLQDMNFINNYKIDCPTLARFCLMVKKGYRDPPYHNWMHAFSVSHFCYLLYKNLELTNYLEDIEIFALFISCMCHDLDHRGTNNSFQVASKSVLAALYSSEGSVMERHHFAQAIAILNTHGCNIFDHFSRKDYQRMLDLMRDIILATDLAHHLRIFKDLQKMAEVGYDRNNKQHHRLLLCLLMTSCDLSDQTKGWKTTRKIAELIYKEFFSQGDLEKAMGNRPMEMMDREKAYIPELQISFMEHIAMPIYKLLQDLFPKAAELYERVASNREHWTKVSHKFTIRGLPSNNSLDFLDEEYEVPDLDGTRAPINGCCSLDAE
Summary of the method: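 Enzyme dosed to give about 20% substrate turnover acts for 60 min at room temperature on 50 nM FAM-cAMP plus 1000 nM cGMP (Tris pH 7.2, MgCl2, DTT, Tween-20 buffer). IMAP binding solution then stops the reaction; after 1 h, polarization is measured from parallel and perpendicular fluorescence.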

[3] = Lab A, read-out: Rhesus PDE2 Ki (nM) - Lab A
[4] = Lab A, read-out: Human PDE2 Ki (nM) - Lab A
[5] = Lab B, read-out: Rhesus PDE2 Ki (nM) - Lab B
[6] = Lab B, read-out: Human PDE2 Ki (nM) - Lab B

Chain of Rhesus PDE2A3 (B3VTJ2 1-941): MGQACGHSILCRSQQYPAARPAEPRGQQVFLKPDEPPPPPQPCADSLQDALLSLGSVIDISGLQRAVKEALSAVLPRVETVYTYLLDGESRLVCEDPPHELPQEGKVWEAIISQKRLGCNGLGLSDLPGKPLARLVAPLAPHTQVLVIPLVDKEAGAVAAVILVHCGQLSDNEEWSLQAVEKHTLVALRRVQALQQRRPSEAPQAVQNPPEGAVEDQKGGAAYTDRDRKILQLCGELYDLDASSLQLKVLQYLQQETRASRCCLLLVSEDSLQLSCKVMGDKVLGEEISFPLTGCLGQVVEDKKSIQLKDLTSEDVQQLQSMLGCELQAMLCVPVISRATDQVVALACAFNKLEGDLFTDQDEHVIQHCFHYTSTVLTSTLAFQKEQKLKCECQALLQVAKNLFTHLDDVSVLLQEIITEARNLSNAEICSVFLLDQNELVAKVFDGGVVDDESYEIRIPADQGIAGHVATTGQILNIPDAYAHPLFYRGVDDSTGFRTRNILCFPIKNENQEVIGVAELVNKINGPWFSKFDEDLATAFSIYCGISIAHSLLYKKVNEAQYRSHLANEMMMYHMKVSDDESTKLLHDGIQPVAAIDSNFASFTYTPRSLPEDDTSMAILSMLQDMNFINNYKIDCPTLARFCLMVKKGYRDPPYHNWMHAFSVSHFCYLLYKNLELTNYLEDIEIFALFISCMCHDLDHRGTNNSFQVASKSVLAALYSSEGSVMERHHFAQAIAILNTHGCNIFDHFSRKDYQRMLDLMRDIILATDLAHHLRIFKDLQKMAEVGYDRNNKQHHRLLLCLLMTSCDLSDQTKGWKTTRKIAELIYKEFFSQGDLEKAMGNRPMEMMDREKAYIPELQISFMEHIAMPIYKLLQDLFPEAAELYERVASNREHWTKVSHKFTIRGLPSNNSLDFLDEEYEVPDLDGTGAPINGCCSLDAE

CSc1nc(C(=O)N[C@H](C)c2ccc(C(F)(F)F)cc2)cc(=O)[nH]1 [Example 15, (R)-2-(methylthio)-6-oxo-N-(1-(4-(trifluoromethyl)phenyl)ethyl)-1,6-dihydropyrimidine-4-carboxamide]
Ki [1, 3]: 46 nM | Ki [2, 4]: 31 nM

COc1nc(C(=O)N[C@H](C)c2ccc(C(F)(F)F)cc2)cc(=O)[nH]1 [Example 17, (R)-2-methoxy-6-oxo-N-(1-(4-(trifluoromethyl)phenyl)ethyl)-1,6-dihydropyrimidine-4-carboxamide]
Ki [1, 3]: 130 nM | Ki [2, 4]: 115 nM

Cc1cc(C(F)(F)F)ccc1C(C)(C)NC(=O)c1cc(=O)[nH]c(N(C)C)n1 [Example 78, 2-(dimethylamino)-N-{1-methyl-1-[2-methyl-4-(trifluoromethyl)phenyl]ethyl}-6-oxo-1,6-dihydropyrimidine-4-carboxamide]
Ki [1, 5]: 2.3 nM | Ki [2, 6]: 2.2 nM

C[C@@H](NC(=O)c1cc(=O)[nH]c(N2CCOCC2)n1)c1ccc(C(F)(F)F)cc1 [Example 132, 2-morpholin-4-yl-6-oxo-N-{(1R)-1-[4-(trifluoromethyl)phenyl]ethyl}-1,6-dihydropyrimidine-4-carboxamide]
Ki [1, 3]: 60 nM | Ki [2, 4]: 30 nM

C[C@@H](NC(=O)c1cc(=O)[nH]c(NC2CC2)n1)c1ccc(C(F)(F)F)cc1 [Example 140, 2-(cyclopropylamino)-6-oxo-N-{(1R)-1-[4-(trifluoromethyl)phenyl]ethyl}-1,6-dihydropyrimidine-4-carboxamide]
Ki [1, 3]: 54 nM | Ki [2, 4]: 51 nM

CC[C@@H](NC(=O)c1cc(=O)[nH]c(N2CCCC2)n1)c1ccc(SC(F)(F)F)c(F)c1 [Example 29, N-[(1R)-1-{3-fluoro-4-[(trifluoromethyl)sulfanyl]phenyl}propyl]-6-oxo-2-pyrrolidin-1-yl-1,6-dihydropyrimidine-4-carboxamide]
Ki [1, 3]: 0.56 nM | Ki [2, 4]: 0.22 nM

CCN(CC)c1nc(C(=O)N[C@H](C)c2ccc(C(F)(F)F)cc2)cc(=O)[nH]1 [Example 142, 2-(diethylamino)-6-oxo-N-{(1R)-1-[4-(trifluoromethyl)phenyl]ethyl}-1,6-dihydropyrimidine-4-carboxamide]
Ki [1, 3]: 23 nM | Ki [2, 4]: 16 nM

C[C@@H](NC(=O)c1cc(=O)[nH]c(N2CC(F)(F)C2)n1)c1ccc(C(F)(F)F)cc1 [Example 24, 2-(3,3-Difluoroazetidin-1-yl)-6-oxo-N-{(1R)-1-[4-(trifluoromethyl)phenyl]ethyl}-1,6-dihydropyrimidine-4-carboxamide]
Ki [1, 3]: 79 nM | Ki [2, 4]: 40 nM

CN(C)c1nc(C(=O)NC(c2ccc(C3(C)CC3)c(F)c2)C(C)(C)C)cc(=O)[nH]1 (single isomer, unassigned) [Example 124, (R)- or (S)-2-(dimethylamino)-N-{1-[3-fluoro-4-(1-methylcyclopropyl)phenyl]-2,2-dimethylpropyl}-6-oxo-1,6-dihydropyrimidine-4-carboxamide]
Ki [1, 5]: 0.45 nM | Ki [2, 6]: 0.34 nM

CN(C)c1nc(C(=O)NC(C)(C)c2ccc(S(F)(F)(F)(F)F)cc2)cc(=O)[nH]1 [Example 118, 2-(Dimethylamino)-N-{1-methyl-1-[4-(pentafluoro-λ^6-sulfanyl)phenyl]ethyl}-6-oxo-1,6-dihydropyrimidine-4-carboxamide]
Ki [1, 5]: 224 nM | Ki [2, 6]: 140 nM

C[C@@H](NC(=O)c1cc(=O)[nH]c(NC2CCCC2)n1)c1ccc(C(F)(F)F)cc1 [Example 139, 2-(cyclopentylamino)-6-oxo-N-{(1R)-1-[4-(trifluoromethyl)phenyl]ethyl}-1,6-dihydropyrimidine-4-carboxamide]
Ki [1, 3]: 109 nM | Ki [2, 4]: 56 nM

C[C@@H](NC(=O)c1cc(=O)[nH]c(N(C)C)n1)c1ccc(OC(F)(F)F)cc1F [Example 83, 2-(dimethylamino)-N-{(1R)-1-[2-fluoro-4-(trifluoromethoxy)phenyl]ethyl}-6-oxo-1,6-dihydropyrimidine-4-carboxamide]
Ki [1, 5]: 2.3 nM | Ki [2, 6]: 2.4 nM

Cc1ncc2c(n1)CN(c1nc(C(=O)N[C@H](C)c3ccc(C(F)(F)F)cc3)cc(=O)[nH]1)C2 [Example 159, 2-(2-methyl-5,7-dihydro-6H-pyrrolo[3,4-d]pyrimidin-6-yl)-6-oxo-N-{(1R)-1-[4-(trifluoromethyl)phenyl]ethyl}-1,6-dihydropyrimidine-4-carboxamide]
Ki [1, 3]: 18 nM | Ki [2, 4]: 11 nM

CC(C)[C@@H](NC(=O)c1cc(=O)[nH]c(N(C)C)n1)c1ccc(OC(F)(F)F)c(Cl)c1 [Example 86, N-{(1R)-1-[3-chloro-4-(trifluoromethoxy)phenyl]-2-methylpropyl}-2-(dimethylamino)-6-oxo-1,6-dihydropyrimidine-4-carboxamide]
Ki [1, 3]: 0.54 nM | Ki [1, 5]: 2.1 nM | Ki [2, 6]: 1.7 nM

CN(C)c1nc(C(=O)NC2(c3ccc(C(C)(C)C)cc3)CC2)cc(=O)[nH]1 [Example 46, N-[1-(4-tert-butylphenyl)cyclopropyl]-2-(dimethylamino)-6-oxo-1,6-dihydropyrimidine-4-carboxamide]
Ki [1, 5]: 3.4 nM | Ki [2, 6]: 3.6 nM

C[C@@H](NC(=O)c1cc(=O)[nH]c(N(C)C)n1)c1ccc(C(F)(F)F)c(F)c1F [Example 84, N-{(1R)-1-[2,3-difluoro-4-(trifluoromethyl)phenyl]ethyl}-2-(dimethylamino)-6-oxo-1,6-dihydropyrimidine-4-carboxamide]
Ki [1, 5]: 3.5 nM | Ki [2, 6]: 2.5 nM

CCOc1nc(C(=O)N[C@H](C)c2ccc(C(F)(F)F)cc2)cc(=O)[nH]1 [Example 18, (R)-2-ethoxy-6-oxo-N-(1-(4-(trifluoromethyl)phenyl)ethyl)-1,6-dihydropyrimidine-4-carboxamide]
Ki [1, 3]: 63 nM | Ki [2, 4]: 72 nM

C[C@@H](NC(=O)c1cc(=O)[nH]c(N2CC[C@@H](F)C2)n1)c1ccc(C(F)(F)F)cc1 [Example 11, 2-((R)-3-fluoropyrrolidin-1-yl)-6-oxo-N—((R)-1-(4-(trifluoromethyl)phenyl)ethyl)-1,6-dihydropyrimidine-4-carboxamide]
Ki [1, 3]: 30 nM | Ki [2, 4]: 18 nM

C[C@@H](NC(=O)c1cc(=O)[nH]c(Nc2ccccn2)n1)c1ccc(C(F)(F)F)cc1 [Example 136, 6-oxo-2-(pyridin-2-ylamino)-N-{(1R)-1-[4-(trifluoromethyl)phenyl]ethyl}-1,6-dihydropyrimidine-4-carboxamide]
Ki [1, 3]: 610 nM | Ki [2, 4]: 491 nM

O=C(N[C@@H](c1ccc(OC(F)(F)F)c(F)c1)C1CC1)c1cc(=O)[nH]c(N2CCCC2)n1 [Example 25, N-{(R)-cyclopropyl[3-fluoro-4-(trifluoromethoxy)phenyl]methyl}-6-oxo-2-pyrrolidin-1-yl-1,6-dihydropyrimidine-4-carboxamide]
Ki [1, 3]: 0.85 nM | Ki [2, 4]: 0.37 nM

COCCCOc1nc(C(=O)NC(C)c2ccc(C(F)(F)F)cc2)cc(=O)[nH]1 (centres unmarked) [Example 179, 2-(3-methoxypropoxy)-6-oxo-N-{1-[4-(trifluoromethyl)phenyl]ethyl}-1,6-dihydropyrimidine-4-carboxamide]
Ki [1, 3]: 108 nM | Ki [2, 4]: 75 nM

CCN(C)c1nc(C(=O)N[C@H](C)c2ccc(C(F)(F)F)cc2)cc(=O)[nH]1 [Example 141, 2-[ethyl(methyl)amino]-6-oxo-N-{(1R)-1-[4-(trifluoromethyl)phenyl]ethyl}-1,6-dihydropyrimidine-4-carboxamide]
Ki [1, 3]: 10.3 nM | Ki [2, 4]: 6 nM

C[C@H](NC(=O)c1cc(=O)[nH]c(N(C)C)n1)c1ccc(S(F)(F)(F)(F)F)cc1F [Example 117, (S)-2-(dimethylamino)-N-(1-(4-(pentafluorothio)-2-fluorophenyl)ethyl)-6-oxo-1,6-dihydropy-rimidine-4-carboxamide]
Ki [1, 5]: 2.5 nM | Ki [2, 6]: 2.1 nM

COC(C)(C)CCOc1nc(C(=O)NC(C)c2ccc(C(F)(F)F)cc2)cc(=O)[nH]1 (centres unmarked) [Example 186, 2-(3-methoxy-3-methylbutoxy)-6-oxo-N-{1-[4-(trifluoromethyl)phenyl]ethyl}-1,6-dihydro pyrimidine-4-carboxamide]
Ki [1, 3]: 352 nM

CC(NC(=O)c1cc(=O)[nH]c(OC2CCCN(C)C2)n1)c1ccc(C(F)(F)F)cc1 (centres unmarked) [Example 182, 2-[(1-methylpiperidin-3-yl)oxy]-6-oxo-N-{1-[4-(trifluoromethyl)phenyl]ethyl}-1,6-dihydro pyrimidine-4-carboxamide]
Ki [1, 3]: 55000 nM

CC(NC(=O)c1cc(=O)[nH]c(OC2CCCNC2)n1)c1ccc(C(F)(F)F)cc1 (centres unmarked) [Example 191, 6-oxo-2-(piperidin-3-yloxy)-N-{1-[4-(trifluoromethyl)phenyl]ethyl}-1,6-dihydropyrimidine-4-carboxamide]
Ki [1, 3]: > 100000 nM
